{"source": "patent US6881418B2", "about": "“Liquid deodorant killing microorganism and method of microorganism-killing deodorization” (K.I Chemical Industry Co., Ltd., priority 2001, dated 2005)", "key": {"[1]": {"test_system": "Escherichia genus microbes", "assay": "Test of fast-acting microbicidal efficacy (viable cell count against contact time)", "type": "cell-based", "details": "pH 8", "experimental": "Escherichia genus microbes, which were subjected to cell washing, were diluted with phosphate/citrate buffer solution (pH 8) to a concentration of approximately 10^6 CFU/ml, and 1 L each of the prepared solution was poured into glass beakers. Example 1 or 8, and the powdered substance of Compound A1 were each added thereto so as to bring to a prescribed concentration (indicated based on active ingredient), respectively, and the mixtures were stirred for 90 minutes. A portion of each mixture was taken at 5, 10, 30, and 90 minutes and was diluted with sterilized water. Then, the diluted mixture was inoculated onto a nutrient plate agar medium and cultured in an incubator at 30° C. for 3 days. Then, viable cells therein were counted. The results are shown in Tables 6 and 7 in the unit of CFU/ml. Tables 6 and 7 indicate the results obtained by conducting the tests over two separate occasions under the above conditions."}, "[2]": {"assay": "Test of sustainability of deodorant effect against active sludge (gas detector tubes)", "details": "gas phase over 40% sludge suspension, ND = equal to or lower than detection limit", "experimental": "Active sludge (dehydrated cake, water content 70%) obtained from a sewage treatment plant was used for tests on the deodorant effect. The obtained active sludge was suspended with distilled water to form a 40% suspension. Example 9, Comparative Example 2, or powdered Compound A2 was then added to the suspension in a prescribed amount (indicated based on active ingredient) and stirred. 200 g of each suspension containing Example 9, Comparative Example 2, or powdered Compound A2 was transferred to a 1-liter Erlenmeyer flask, and the flask was sealed with a rubber stopper provided with 2 glass pipes each having a rubber tube and a pinchcock. […] The measurement of each gas component was conducted by inserting a gas detector tube into one of the rubber tubes with both pinchcocks open. Used herein were a gas detector 3L (GASTEC CORPORATION) for ammonia, a gas detector 3L (GASTEC CORPORATION) for hydrogen sulfide, and a gas detector 71 (GASTEC CORPORATION) for methyl mercaptan."}, "[3]": {"details": "10 ppm active ingredient, 1 hour later"}, "[4]": {"details": "10 ppm active ingredient, 2 hours later"}, "[5]": {"details": "20 ppm active ingredient, 1 hour later"}, "[6]": {"details": "20 ppm active ingredient, 2 hours later"}, "[7]": {"details": "40 ppm active ingredient, 1 hour later"}, "[8]": {"details": "40 ppm active ingredient, 2 hours later"}, "[9]": {"details": "80 ppm active ingredient, 2 hours later"}}}
{"compound": "CC1(C)C(=O)N(Br)C(=O)N1Br", "note": "[Compound A1, 1,3-dibromo-5,5-dimethylhydantoin]", "values": [{"measurement": "viable cells", "setting": "[1]; 0.25 ppm active ingredient, contact time 5 min, Table 6", "value": "3.0 × 10^6 CFU/ml"}, {"measurement": "viable cells", "setting": "[1]; 0.25 ppm active ingredient, contact time 5 min, Table 7", "value": "5.6 × 10^6 CFU/ml"}, {"measurement": "viable cells", "setting": "[1]; 0.25 ppm active ingredient, contact time 10 min, Table 6", "value": "3.1 × 10^6 CFU/ml"}, {"measurement": "viable cells", "setting": "[1]; 0.25 ppm active ingredient, contact time 10 min, Table 7", "value": "5.1 × 10^6 CFU/ml"}, {"measurement": "viable cells", "setting": "[1]; 0.25 ppm active ingredient, contact time 30 min, Table 6", "value": "4.5 × 10^5 CFU/ml"}, {"measurement": "viable cells", "setting": "[1]; 0.25 ppm active ingredient, contact time 30 min, Table 7", "value": "3.7 × 10^5 CFU/ml"}, {"measurement": "viable cells", "setting": "[1]; 0.25 ppm active ingredient, contact time 90 min, Table 6", "value": "3.7 × 10^5 CFU/ml"}, {"measurement": "viable cells", "setting": "[1]; 0.25 ppm active ingredient, contact time 90 min, Table 7", "value": "2.7 × 10^5 CFU/ml"}, {"measurement": "viable cells", "setting": "[1]; 0.5 ppm active ingredient, contact time 5 min, Table 6", "value": "3.0 × 10^6 CFU/ml"}, {"measurement": "viable cells", "setting": "[1]; 0.5 ppm active ingredient, contact time 5 min, Table 7", "value": "5.0 × 10^6 CFU/ml"}, {"measurement": "viable cells", "setting": "[1]; 0.5 ppm active ingredient, contact time 10 min, Table 6", "value": "7.7 × 10^5 CFU/ml"}, {"measurement": "viable cells", "setting": "[1]; 0.5 ppm active ingredient, contact time 10 min, Table 7", "value": "6.7 × 10^5 CFU/ml"}, {"measurement": "viable cells", "setting": "[1]; 0.5 ppm active ingredient, contact time 30 min, Table 6", "value": "8.0 × 10^4 CFU/ml"}, {"measurement": "viable cells", "setting": "[1]; 0.5 ppm active ingredient, contact time 30 min, Table 7", "value": "8.0 × 10^4 CFU/ml"}, {"measurement": "viable cells", "setting": "[1]; 0.5 ppm active ingredient, contact time 90 min, Table 6", "value": "<10^2 CFU/ml"}, {"measurement": "viable cells", "setting": "[1]; 0.5 ppm active ingredient, contact time 90 min, Table 7", "value": "<10^2 CFU/ml"}, {"measurement": "viable cells", "setting": "[1]; 1.0 ppm active ingredient, contact time 5 min, Table 6", "value": "2.9 × 10^6 CFU/ml"}, {"measurement": "viable cells", "setting": "[1]; 1.0 ppm active ingredient, contact time 5 min, Table 7", "value": "4.8 × 10^6 CFU/ml"}, {"measurement": "viable cells", "setting": "[1]; 1.0 ppm active ingredient, contact time 10 min, Table 6", "value": "2.7 × 10^5 CFU/ml"}, {"measurement": "viable cells", "setting": "[1]; 1.0 ppm active ingredient, contact time 10 min, Table 7", "value": "2.9 × 10^5 CFU/ml"}, {"measurement": "viable cells", "setting": "[1]; 1.0 ppm active ingredient, contact time 30 min, Table 6", "value": "4.0 × 10^3 CFU/ml"}, {"measurement": "viable cells", "setting": "[1]; 1.0 ppm active ingredient, contact time 30 min, Table 7", "value": "8.8 × 10^3 CFU/ml"}, {"measurement": "viable cells", "setting": "[1]; 1.0 ppm active ingredient, contact time 90 min, Table 6", "value": "<10^2 CFU/ml"}, {"measurement": "viable cells", "setting": "[1]; 1.0 ppm active ingredient, contact time 90 min, Table 7", "value": "<10^2 CFU/ml"}, {"measurement": "viable cells", "setting": "[1]; 1.5 ppm active ingredient, contact time 5 min, Table 6", "value": "3.3 × 10^6 CFU/ml"}, {"measurement": "viable cells", "setting": "[1]; 1.5 ppm active ingredient, contact time 5 min, Table 7", "value": "4.3 × 10^6 CFU/ml"}, {"measurement": "viable cells", "setting": "[1]; 1.5 ppm active ingredient, contact time 10 min, Table 6", "value": "5.0 × 10^4 CFU/ml"}, {"measurement": "viable cells", "setting": "[1]; 1.5 ppm active ingredient, contact time 10 min, Table 7", "value": "3.0 × 10^4 CFU/ml"}, {"measurement": "viable cells", "setting": "[1]; 1.5 ppm active ingredient, contact time 30 min, Table 6", "value": "2.0 × 10^2 CFU/ml"}, {"measurement": "viable cells", "setting": "[1]; 1.5 ppm active ingredient, contact time 30 min, Table 7", "value": "<10^2 CFU/ml"}, {"measurement": "viable cells", "setting": "[1]; 1.5 ppm active ingredient, contact time 90 min, Table 6", "value": "<10^2 CFU/ml"}, {"measurement": "viable cells", "setting": "[1]; 1.5 ppm active ingredient, contact time 90 min, Table 7", "value": "<10^2 CFU/ml"}, {"measurement": "viable cells", "setting": "[1]; 2.0 ppm active ingredient, contact time 5 min, Table 6", "value": "1.0 × 10^5 CFU/ml"}, {"measurement": "viable cells", "setting": "[1]; 2.0 ppm active ingredient, contact time 5 min, Table 7", "value": "3.2 × 10^5 CFU/ml"}, {"measurement": "viable cells", "setting": "[1]; 2.0 ppm active ingredient, contact time 10 min, Table 6", "value": "2.0 × 10^4 CFU/ml"}, {"measurement": "viable cells", "setting": "[1]; 2.0 ppm active ingredient, contact time 10 min, Table 7", "value": "1.2 × 10^4 CFU/ml"}, {"measurement": "viable cells", "setting": "[1]; 2.0 ppm active ingredient, contact time 30 min, Table 6", "value": "<10^2 CFU/ml"}, {"measurement": "viable cells", "setting": "[1]; 2.0 ppm active ingredient, contact time 30 min, Table 7", "value": "<10^2 CFU/ml"}, {"measurement": "viable cells", "setting": "[1]; 2.0 ppm active ingredient, contact time 90 min, Table 6", "value": "<10^2 CFU/ml"}, {"measurement": "viable cells", "setting": "[1]; 2.0 ppm active ingredient, contact time 90 min, Table 7", "value": "<10^2 CFU/ml"}]}
{"compound": "CC1(C)C(=O)N(Cl)C(=O)N1Br", "note": "[Compound A2, 1-bromo-3-chloro-5,5-dimethylhydantoin]", "values": [{"measurement": "Volume of Ammonia", "setting": "[2]; [3]", "value": 40, "unit": "ppm"}, {"measurement": "Volume of Hydrogen sulfide", "setting": "[2]; [3]", "value": 5.0, "unit": "ppm"}, {"measurement": "Volume of Methyl mercaptan", "setting": "[2]; [3]", "value": 10, "unit": "ppm"}, {"measurement": "Volume of Ammonia", "setting": "[2]; [4]", "value": 40, "unit": "ppm"}, {"measurement": "Volume of Hydrogen sulfide", "setting": "[2]; [4]", "value": 5.0, "unit": "ppm"}, {"measurement": "Volume of Methyl mercaptan", "setting": "[2]; [4]", "value": 10, "unit": "ppm"}, {"measurement": "Volume of Ammonia", "setting": "[2]; [5]", "value": 40, "unit": "ppm"}, {"measurement": "Volume of Hydrogen sulfide", "setting": "[2]; [5]", "value": 5.0, "unit": "ppm"}, {"measurement": "Volume of Methyl mercaptan", "setting": "[2]; [5]", "value": 10, "unit": "ppm"}, {"measurement": "Volume of Ammonia", "setting": "[2]; [6]", "value": 40, "unit": "ppm"}, {"measurement": "Volume of Hydrogen sulfide", "setting": "[2]; [6]", "value": 5.0, "unit": "ppm"}, {"measurement": "Volume of Methyl mercaptan", "setting": "[2]; [6]", "value": 10, "unit": "ppm"}, {"measurement": "Volume of Ammonia", "setting": "[2]; [7]", "value": 10, "unit": "ppm"}, {"measurement": "Volume of Hydrogen sulfide", "setting": "[2]; [7]", "value": 2.5, "unit": "ppm"}, {"measurement": "Volume of Methyl mercaptan", "setting": "[2]; [7]", "value": 0.5, "unit": "ppm"}, {"measurement": "Volume of Ammonia", "setting": "[2]; [8]", "value": 40, "unit": "ppm"}, {"measurement": "Volume of Hydrogen sulfide", "setting": "[2]; [8]", "value": 5.0, "unit": "ppm"}, {"measurement": "Volume of Methyl mercaptan", "setting": "[2]; [8]", "value": 10, "unit": "ppm"}, {"measurement": "Volume of Ammonia", "setting": "[2]; [9]", "value": 20, "unit": "ppm"}, {"measurement": "Volume of Hydrogen sulfide", "setting": "[2]; [9]", "value": 5.0, "unit": "ppm"}, {"measurement": "Volume of Methyl mercaptan", "setting": "[2]; [9]", "value": 5.0, "unit": "ppm"}]}
